Results taken from the supplement of paper PMC11061612.

Columns and labels:
[1] = test system: PCI-30 (Head and Neck Carcinoma); assay: Bliss excess, mean over the matrix (fraction); higher = more synergy
How it was run: (§1)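 Cell lines grown in DMEM/F12 or RPMI with 10% FBS were plated in 1536-well plates and held 24 hours at 37°C, 5% CO2 before 72 hours of exposure to two-drug dose matrices, with DMSO typically at 0.2%. CellTiter-Glo 2.0 luminescence gave viability, which was converted to inhibition. Vehicle wells were set to 0 and blank wells to 1. Combination Emax is the second-highest inhibition in the matrix, and Bliss excess is the observed combination effect minus the expected EA + EB − EA·EB, where EA and EB are the single-agent effects.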

[2] = test system: RT-112 (Bladder Carcinoma); assay: as above
How it was run: as §1

[3] = test system: CAL-51 (Breast Carcinoma); assay: as above
How it was run: as §1

[4] = test system: OVCAR-8 (Ovarian Carcinoma); assay: as above
How it was run: as §1

[5] = test system: LU-139 (Small Cell Lung Carcinoma); assay: combination Emax (second highest fraction inhibited in the dose matrix, 72 h); higher = more inhibition; extreme values may be limits of the assay
How it was run: as §1

NCI-H28 (Mesothelioma) = assay: as above
How it was run: as §1

[6] = test system: CAL-54 (Kidney Carcinoma); assay: as above
How it was run: as §1

[7] = test system: NCI-H69 (Small Cell Lung Carcinoma); assay: as above
How it was run: as §1

COLO-829 (Melanoma) = assay: as above
How it was run: as §1

[8] = test system: KARPAS-231 (B-Cell Non-Hodgkin's Lymphoma); assay: as above
How it was run: as §1

[9] = test system: CAPAN-1 (Pancreatic Carcinoma); assay: as above
How it was run: as §1

[10] = test system: SK-OV-3 (Ovarian Carcinoma); assay: as above
How it was run: as §1

[11] = test system: LB771-HNC (Head and Neck Carcinoma); assay: as above
How it was run: as §1

[12] = test system: HCC-15 (Squamous Cell Lung Carcinoma); assay: as above
How it was run: as §1

[13] = test system: MHH-PREB-1 (B-Cell Non-Hodgkin's Lymphoma); assay: as above
How it was run: as §1

HMV-II (Melanoma) = assay: as above
How it was run: as §1

[14] = test system: SW1271 (Small Cell Lung Carcinoma); assay: as above
How it was run: as §1

[15] = test system: RPMI-6666 (Non-Cancerous); assay: as above
How it was run: as §1

NB14 (Neuroblastoma) = assay: as above
How it was run: as §1

[16] = test system: HARA (Squamous Cell Lung Carcinoma); assay: as above
How it was run: as §1
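For Bliss excess, mean over the matrix in this document: after 72 h of two-drug dosing.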

SMILES | Bliss excess [1] | Bliss excess [2] | Bliss excess [3] | Bliss excess [4] | combination Emax [5] | combination Emax (NCI-H28 (Mesothelioma)) | combination Emax [6] | combination Emax [7] | combination Emax (COLO-829 (Melanoma)) | combination Emax [8] | combination Emax [9] | combination Emax [10] | combination Emax [11] | combination Emax [12] | combination Emax [13] | combination Emax (HMV-II (Melanoma)) | combination Emax [14] | combination Emax [15] | combination Emax (NB14 (Neuroblastoma)) | combination Emax [16]
CC1(C)CCC(CN2CCN(c3ccc(C(=O)NS(=O)(=O)c4ccc(NCC5CCOCC5)c([N+](=O)[O-])c4)c(Oc4cnc5[nH]ccc5c4)c3)CC2)=C(c2ccc(Cl)cc2)C1 [Venetoclax] + C=CCn1c(=O)c2cnc(Nc3ccc(N4CCN(C)CC4)cc3)nc2n1-c1cccc(C(C)(C)O)n1 [AZD1775] (first compound max 1 µM, partner max 1 µM) | 0.0974 | 0.0891 | -0.0507 | -0.0326 | 0.831 | 0.336 | 0.795 | 0.425 | 0.235 | 1 | 0.45 | 0.74 | 0.518 | 0.469 | 0.846 | 0.484 | 0.552 | 0.996 | 1 | 0.899
CCc1c2c(nc3ccc(O)cc13)-c1cc3c(c(=O)n1C2)COC(=O)[C@]3(O)CC [SN-38] + CN(C)CCCOc1ccc(-c2ccc3ncc4c(c3c2)n(C2CCOCC2)c(=O)n4C)cn1 [AZD0156] (first compound max 0.3 µM, 7x7, partner max 1 µM) | -0.0044 | 0.0988 | 0.0611 | 0.0058 | 0.627 | 0.307 | 0.925 | 0.738 | 0.497 | 1 | 0.781 | 0.517 | 0.0261 | 0.879 | 0.701 | 0.587 | 0.707 | 0.947 | 0.918 | 0.768
NC1(C(=O)N[C@@H](CCO)c2ccc(Cl)cc2)CCN(c2ncnc3[nH]ccc23)CC1 [Capivasertib] + CC(C)n1c(=O)n(C)c2cnc3cc(F)c(-c4ccc(OCCCN5CCCCC5)nc4)cc3c21 [AZD1390] (first compound max 10 µM, 7x7, partner max 0.3 µM) | -0.0488 | -0.0581 | -0.0972 | -0.0304 | 0.0539 | 0.281 | 0.466 | 0.514 | 0.201 | 0.215 | 0.044 | 0.383 | 0.395 | 0.26 | 0.21 | 0.358 | 0.371 | 0.715 | 0.381 | 0.514
Cc1c2c(nn1C)CSCc1cc(n(C)n1)CSc1cc(c3ccccc3c1)OCCCc1c(C(=O)O)n(C)c3c-2c(Cl)ccc13 [AZD5991] + C[C@@H](Nc1cc(F)cc(F)c1)c1cc(C(=O)N(C)C)cc2c(=O)cc(N3CCOCC3)oc12 [AZD8186] (first compound max 1 µM, 7x7, partner max 3 µM) | -0.0209 | 0.0316 | 0.0173 | 0.0164 | 0.174 | 0.298 | 0.602 | 0.305 | 0.17 | 1 | 0.172 | 0.424 | 0.486 | 0.203 | 0.214 | 0.192 | 0.207 | 0.717 | 0.898 | 0.412
CN(CCO)CC[C@H](CSc1ccccc1)Nc1ccc(S(=O)(=O)NC(=O)c2ccc(N3CCC([C@@H](O)c4ccccc4-c4ccc(Cl)cc4)CC3)cc2)cc1S(=O)(=O)C(F)(F)F [AZD4320] + CCN(CCO)CCCOc1ccc2c(Nc3cc(CC(=O)Nc4cccc(F)c4)[nH]n3)ncnc2c1 [AZD2811] (first compound max 1 µM, 7x7, partner max 1 µM) | -0.0085 | 0.172 | 0.0881 | 0.028 | 0.914 | 0.416 | 0.163 | 0.896 | 0.196 | 1 | 0.336 | 0.178 | 0.191 | 0.966 | 0.2 | 0.18 | 0.234 | 0.982 | 1 | 0.63
NC1(C(=O)N[C@@H](CCO)c2ccc(Cl)cc2)CCN(c2ncnc3[nH]ccc23)CC1 [Capivasertib] + CC(=O)c1c(C)c2cnc(Nc3ccc(N4CCNCC4)cn3)nc2n(C2CCCC2)c1=O [Palbociclib] (first compound max 10 µM, 7x7, partner max 10 µM) | -0.0554 | -0.0324 | 0.0262 | -0.0017 | 0.0872 | 0.425 | 0.658 | 0.764 | 0.356 | 0.129 | 0.277 | 0.417 | 0.403 | 0.633 | 0.502 | 0.524 | 0.349 | 0.675 | 0.598 | 0.689
COc1cc2c(cc1OCCCCCOc1cc3c(cc1OC)C(=O)N1C=C(C)C[C@H]1C=N3)N=C[C@@H]1CC(C)=CN1C2=O [SG3199] + O=C(c1cc(Cc2n[nH]c(=O)c3ccccc23)ccc1F)N1CCN(C(=O)C2CC2)CC1 [Olaparib] (first compound max 0.001 µM, 7x7, partner max 10 µM) | -0.0328 | -0.0227 | -0.0299 | -0.0295 | 0.174 | 0.0051 | 0.121 | 0.242 | 0.129 | 0.262 | 0.198 | 0.0705 | 0.181 | 0.145 | 0.13 | 0.118 | 0.18 | 0.501 | 0.42 | 0.174
CC(=O)Nc1cccc(-n2c(=O)n(C3CC3)c(=O)c3c(Nc4ccc(I)cc4F)n(C)c(=O)c(C)c32)c1 [Trametinib] + Cc1nc(-c2cn3c(n2)-c2ccc(-c4cnn(C(C)(C)C(N)=O)c4)cc2OCC3)n(C(C)C)n1 [Taselisib] (first compound max 1 µM, 7x7, partner max 10 µM) | 0.0485 | 0.106 | 0.0242 | 0.121 | 0.143 | 0.632 | 0.763 | 0.688 | 0.942 | 0.149 | 0.774 | 0.797 | 0.895 | 0.987 | 0.271 | 0.926 | 0.653 | 0.675 | 0.822 | 0.818
CN(CCO)CC[C@H](CSc1ccccc1)Nc1ccc(S(=O)(=O)NC(=O)c2ccc(N3CCC([C@@H](O)c4ccccc4-c4ccc(Cl)cc4)CC3)cc2)cc1S(=O)(=O)C(F)(F)F [AZD4320] + CN(C)CCCOc1ccc(-c2ccc3ncc4c(c3c2)n(C2CCOCC2)c(=O)n4C)cn1 [AZD0156] (first compound max 1 µM, 7x7, partner max 1 µM) | -0.0931 | -0.0274 | -0.034 | -0.0434 | 0.923 | 0.163 | 0.163 | 0.86 | 0.0619 | 0.997 | 0.145 | 0.346 | 0.0751 | 0.936 | 0.205 | 0.157 | 0.127 | 0.875 | 0.983 | 0.187
Cc1cc2ncnn2cc1Nc1ncc2c(n1)n(C1CCOCC1)c(=O)n2C [AZD7648] + C[C@@H]1COCCN1C2=NC(=NC(=C2)C3(CC3)[S@](=N)(=O)C)C4=C5C=CNC5=NC=C4 [AZD6738] (first compound max 10 µM, 7x7, partner max 10 µM) | -0.0101 | 0.0746 | 0.0017 | 0.0012 | 0.396 | 0.538 | 0.769 | 0.469 | 0.286 | 0.837 | 0.495 | 0.638 | 0.464 | 0.181 | 0.863 | 0.442 | 0.674 | 0.797 | 0.99 | 0.841
CC(=O)c1c(C)c2cnc(Nc3ccc(N4CCNCC4)cn3)nc2n(C2CCCC2)c1=O [Palbociclib] + CC1(C)CCC(CN2CCN(c3ccc(C(=O)NS(=O)(=O)c4ccc(NCC5CCOCC5)c([N+](=O)[O-])c4)c(Oc4cnc5[nH]ccc5c4)c3)CC2)=C(c2ccc(Cl)cc2)C1 [Venetoclax] (first compound max 10 µM, 7x7, partner max 1 µM) | -0.0216 | 0 | 0.0055 | -0.0167 | 0.37 | 0.389 | 0.527 | 0.764 | 0.298 | 0.889 | 0.21 | 0.144 | 0.149 | 0.177 | 0.412 | 0.494 | 0.214 | 0.797 | 0.734 | 0.496
CC1(C)CCC(CN2CCN(c3ccc(C(=O)NS(=O)(=O)c4ccc(NCC5CCOCC5)c([N+](=O)[O-])c4)c(Oc4cnc5[nH]ccc5c4)c3)CC2)=C(c2ccc(Cl)cc2)C1 [Venetoclax] + C[C@@H](Nc1cc(F)cc(F)c1)c1cc(C(=O)N(C)C)cc2c(=O)cc(N3CCOCC3)oc12 [AZD8186] (first compound max 1 µM, 7x7, partner max 3 µM) | -0.0292 | -0.0197 | -0.0394 | -0.0162 | 0.279 | 0.115 | 0.533 | 0.697 | 0.243 | 0.792 | 0.178 | 0.433 | 0.283 | 0.173 | 0.21 | 0.263 | 0.151 | 0.988 | 1 | 0.607
